Reference: patent publication US20210355065A1, “CB-0406 tromethamine salt” (CymaBay Therapeutics, Inc., priority 2020, published 2021)

What was measured:
[1] = at 95% relative humidity relative to weight at 5% relative humidity; approx. 0.2 equivalents of water; essentially completely reversible
Method: A DVS analysis of CB-0406 tromethamine salt was performed using a VTI SGA-100 Vapor Sorption Analyzer. The sample was not dried prior to analysis, and data were not corrected for the initial moisture content of the sample. Equilibrium criteria used for analysis were less than 0.010% weight change in 5 minutes, with a maximum equilibration time of 3 hours if the weight criterion was not met. […] Sodium chloride and polyvinylpyrrolidone were used as calibration standards.

[2] = Text: CB-0406 tromethamine salt has been characterized using DSC, TGA, XRPD, hot stage microscopy, and solution ^1H NMR. CB-0406 tromethamine salt has also been tested by relative humidity stressing, and its solubility measured in simulated intestinal fluid without pancreatin.
[3] = 75% RH and 41° C.
Method: Relative humidity (RH) stressing of CB-0406 tromethamine salt was performed by placing solid CB-0406 tromethamine salt in an RH chamber containing a saturated aqueous solution of sodium chloride (˜75% RH), potassium chloride (˜84% RH, RT/-82% RH, 40° C.), sodium bromide (˜58% RH, RT), or potassium sulfate (˜97% RH, RT/-96% RH, 40° C.), with excess salt present. The chamber was sealed and left at ambient temperature or placed in an oven at elevated temperature.

CYP 2C9 = CYP 2C9 (Homo sapiens, UniProt P11712); conditions: tolbutamide hydroxylation assay; relative to (S)-enantiomer; cited from earlier work
Chain of CYP 2C9 (P11712 whole entry, species assumed): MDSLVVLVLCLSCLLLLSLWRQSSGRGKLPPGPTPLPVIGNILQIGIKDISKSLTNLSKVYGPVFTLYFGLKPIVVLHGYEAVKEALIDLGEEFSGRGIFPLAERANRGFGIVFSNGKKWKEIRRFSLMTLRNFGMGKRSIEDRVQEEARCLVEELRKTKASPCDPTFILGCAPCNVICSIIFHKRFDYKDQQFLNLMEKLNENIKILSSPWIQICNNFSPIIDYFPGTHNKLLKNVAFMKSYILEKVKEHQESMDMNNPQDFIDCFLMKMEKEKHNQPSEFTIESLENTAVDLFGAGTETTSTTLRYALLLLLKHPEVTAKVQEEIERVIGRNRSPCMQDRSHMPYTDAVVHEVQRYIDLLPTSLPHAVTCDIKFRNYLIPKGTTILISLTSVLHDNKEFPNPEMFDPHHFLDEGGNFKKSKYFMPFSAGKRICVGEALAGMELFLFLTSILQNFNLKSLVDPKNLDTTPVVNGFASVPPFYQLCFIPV

1,3-dihydroxy-2-(hydroxymethyl)propan-2-aminium (2R)-2-(4-chlorophenyl)-2-[3-(trifluoromethyl)phenoxy]acetate [CB-0406 tromethamine salt]
net weight gain (DVS) [1]: less than 0.8% | solubility ([2]; simulated intestinal fluid without pancreatin): > 200 mg/mL | solubility in simulated intestinal fluid, fold greater than that of CB-0406 ([2]; simulated intestinal fluid, relative to CB-0406): ≥ 60 fold | appearance after RH stressing ([3]; at 7 and 9 days): free-flowing solid | XRPD analysis after RH stressing ([3]; at 18 and 46 days, some increase in low angle scattering background): consistent with CB-0406 tromethamine salt

O=C(O)[C@H](Oc1cccc(C(F)(F)F)c1)c1ccc(Cl)cc1 [CB-0406, (2R)-2-(4-chlorophenyl)-2-[3-(trifluoromethyl)phenoxy]acetic acid]
fold less active as an inhibitor of CYP 2C9 than its (S)-enantiomer (CYP 2C9): approximately 20 fold
